Values quoted from earlier work in patent US6555712B2, “Process for the preparation of diorganotrisulfide” (Indian Institute of Technology, priority 2001, dated 2003).
Read-outs that look alike come from different tables or passages of the source.

Legend:
[1] = test system: Trypanosoma brucei brucei, T.b. rhodesiense, T.b. gambiense, T. evansi, T. congolense and T. equiperdum; details: in vitro; one range for six Trypanosoma species
Entamoeba histolytica = details: in vitro
Giardia Lamblia = details: in vitro
[2] = test system: MASEF, Mastomys natalensis embryo fibroblast; details: MASEF cell line, in vitro
[3] = test system: HEFL-12, human embryo fibroblast; details: HEFL-12 cell line, in vitro
[4] = test system: whole blood platelet-aggregation; details: DATS present in the steam-distilled component of garlic extract
[5] = test system: canine mammary tumor cells (CMT-13)
[6] = test system: human neoplastic (A549) lung cells; details: 10 micromolar
[7] = test system: human nonneoplastic (MRC-5) lung cells; details: 10 microM
[8] = test system: intracellular Ca2+ in A549 cells
[9] = test system: cultured human neoplastic (A549) lung cells; details: 1 microM for 24 hours
macrophages [10] = details: 1-100 micrograms/ml
[11] = test system: tumor derived immunosuppressive factors produced by S180 cells and Ehrlich ascitic cancer cells
macrophages [12] = test system: macrophages
[13] = test system: Sitophilus zeamais (Motschulsky)
[14] = test system: Tribolium castaneum (Herbst); design: egg hatching: dose or concentration left out as unconfirmed

SMILES: C=CCSSSCC=C [DATS, Diallyltrisulfide]
- IC50 (concentration which inhibits metabolism or growth of parasites by 50%) [1]: 0.8-5.5 micrograms/ml
- IC50 (concentration which inhibits metabolism or growth of parasites by 50%) (Entamoeba histolytica): 59 micrograms/ml
- IC50 (concentration which inhibits metabolism or growth of parasites by 50%) (Giardia Lamblia): 14 micrograms/ml
- maximum tolerated concentration [2]: 25 micrograms/ml
- maximum tolerated concentration [3]: 25 micrograms/ml
- Inhibition of whole blood platelet-aggregation [4]: high
- growth of canine mammary tumor cells (CMT-13) [5]: markedly inhibits
- reduction of A549 growth [6]: 47%
- MRC-5 cell growth [7]: did not alter
- intracellular Ca2+ in A549 cells ([8]; 10 microM, during the first four hours after treatment): marked and progressive increase
- intracellular Ca2+ in A549 cells after refeeding the medium without DATS ([8]; after refeeding medium without DATS): returned to near control levels within one hour
- apoptosis, as indicated by increased DNA fragmentation [9]: significantly induced apoptosis
- effect on activation of T lymphocytes by Con A (T lymphocytes; 3.125-12.5 micrograms/ml): augmented
- effect on T cell activation (T lymphocytes; high concentration (50 micrograms/ml)): inhibitory effect
- production of NO by macrophages (macrophages [10]): can inhibit
- inhibition by tumor derived immunosuppressive factors of the activation of T cells (inhibitory rate) [11]: reduce the inhibitory rate significantly
- production of hydrogen peroxide (H2O2) by macrophages (macrophages [12]): enhance
- feeding deterrence index ([13]; S. zeamais adults, 2.98 mg/g food): 27%
- contact and fumigant toxicities ([13]; S. zeamais adults, comparison with methylallyl disulfide): greater than that of methylallyl disulfide
- nutritional indices ([13]; all of the insects tested (S. zeamais)): significantly reduced
- egg hatching ([14]; T. castaneum): totally suppressed
- feeding deterrence ([14]; T. castaneum adults, 0.75 mg/g food): 85%
- contact and fumigant toxicities ([14]; T. castaneum adults, comparison with methylallyl disulfide): greater than that of methylallyl disulfide
- feeding deterrence index ([14]; T. castaneum larvae, 2.98 mg/g food): 51%
- larval and adult emergence ([14]; T. castaneum, at 0.08 mg/cm2): totally suppressed
- nutritional indices ([14]; all of the insects tested (T. castaneum)): significantly reduced

SMILES: C=CCSSC [Methylallyl disulfide, methylallyl disulfide, reference compound]
- growth rate, food consumption, and food utilization of adults ([13]; S. zeamais adults): significantly decreased
- feeding deterrence index ([13]; S. zeamais adults, 6.08 mg/g food): 44%
- growth rate, food consumption, and food utilization of adults ([14]; T. castaneum adults): significantly decreased
- feeding deterrence index ([14]; T. castaneum adults, 1.52 mg/g food): 44%
- nutritional indices of T. castaneum larvae ([14]; T. castaneum larvae): did not affect
